From paper PMC9934367, “Functional impact of subunit composition and compensation on Drosophila melanogaster nicotinic receptors–targets of neonicotinoids” (PLOS Genetics, 2023) come the findings set out here.

In test [1] the target is T1, Dα1/Dα2/Dα3/Dβ1 nAChR (Drosophila melanogaster, UniProt P04755+P09478+P17644+Q9W3G6).
T1 construct: Dα1 (NP_524481); Dα2 (NP_524482); Dβ1 (NP_523927); expressed in transfected cells; host or cells: Xenopus laevis oocytes (cRNA injection)
The test is described as follows: cell-based. Details: species or system D. melanogaster. The conditions noted are these: mean ± standard error (n = 5). Here is the method: (§1) cDNAs of the nAChR subunits and co-factors were cloned into pcDNA3.1 (+) vector (Thermo Fisher Scientific). The accession numbers of the nAChR subunits and cofactors are as follows: Dα1 (NP_524481), Dα2 (NP_524482), Dα3 (NP_525079), Dα4 (CAB77445), Dβ1 (NP_523927), Dβ2 (NP_524483), Dβ3 (NP_525098), DmRIC-3 (CAP16647), DmUNC-50 (NP_649813), and DmTMX3 (NP_648847). cRNAs were prepared using the mMESSAGE mMACHINE T7 ULTRA Transcription Kit (Thermo Fisher Scientific, #AM1345) according to the manual with the cDNA template which was cut with appropriate restriction enzymes at the 3’ end of the cDNA.
(§2) We minimised the use of X. laevis according to the UK Animals (Scientific Procedures) Act, 1986. […] Oocytes were defolliculated after collagenase treatment in Ca^2+-free standard oocyte saline (Ca^2+-free SOS). cRNAs of the nAChR subunits and co-factors mixed at a concentration of 0.1 mg/mL was injected into oocytes at a volume of 50 nL. Then the oocytes were incubated in the incubation medium (SOS supplemented with sodium pyruvate (Nacalai Tesque, #13058–12), penicillin-streptomycin (MilliporeSigma, #P4333), gentamycin (Nacalai Tesque, #16672–04), and 4% horse serum (Thermo Fisher Scientific, #26050–070) for 3−4 days prior to electrophysiology.
(§3) Each defolliculated X. laevis oocyte was secured in a Perspex recording chamber and perfused with the standard oocyte saline (SOS) containing 0.5 μM atropine (SOSA) at a flow rate of 7−10 mL/min [48]. Two glass electrodes filled with 2 M KCl were impaled into each oocyte and the membrane potential was clamped at -100 mV. […] The peak amplitude of the response was measured and analysed by pCLAMP (Molecular Devices, USA).
(§4) Y=Imax/1+10^(logEC50‐X)nH
(§5) Where Y is the normalised response, X is log[ligand (M)], EC50 is the half maximal concentration (M), Imax is the maximum normalised response and nH is the Hill coefficient.

The target in test [2] is T2, Dα1/Dα3/Dβ1 nAChR (Drosophila melanogaster, UniProt P04755+P09478+Q9W3G6).
T2 construct: Dα1 (NP_524481); Dβ1 (NP_523927); expressed in transfected cells; host or cells: Xenopus laevis oocytes (cRNA injection)
The test is described as follows: cell-based. Details: species or system D. melanogaster. The note with it: for Imax / EC50: mean ± standard error (n = 5); for EC50: read-out: pEC50 (converted). The procedure: as §1, §2, §3, §4, §5

In test [3] the target is T3, Dα1/Dα3/Dβ1/Dβ2 nAChR (Drosophila melanogaster, UniProt P04755+P09478+P25162+Q9W3G6).
T3 construct: Dα1 (NP_524481); Dβ1 (NP_523927); Dβ2 (NP_524483); expressed in transfected cells; host or cells: Xenopus laevis oocytes (cRNA injection)
The test is described as follows: cell-based. The conditions noted are these: mean ± standard error (n = 5). Details: species or system D. melanogaster. Here is the method:
as §1, §2, §3, §4, §5

Test [4] concerns D. melanogaster larvae. The test is described as follows: Pupariation rate assay. The class given is in vivo. The procedure:
All flies were raised at 25°C under 12 h/12 h light/dark cycle. The animals were reared on standard fly food containing 5.5 g agar, 100 g glucose, 40 g dry yeast, 90 g cornflour, 3 mL propionic acid, and 3.5 mL 10% butyl p-hydroxybenzoate (Nacalai Tesque, Japan, #06327–15) in 70% ethanol per liter. The control strain was w^1118, and transgenic flies are as follows: UAS-nAChRα1 RNAi (#28688) was obtained from the Bloomington Drosophila Stock Center (BDSC); UAS-nAChRα2 RNAi (UAS-Dα2 RNAi, #10760), UAS-nAChRα3 RNAi (UAS-Dα3 RNAi, #101806); UAS-dicer2 (#60009) were obtained from the Vienna Drosophila Resource Center (VDRC); and UAS-mCD8::GFP (#108068) was obtained from Kyoto Stock Center. elav-Gal4 (3A3) was obtained from Michael B. O’Connor. nAChRα3-knock-in 2A-Gal4 (Dα3-knock-in T2A-Gal4) was generated by the CRISPR/Cas9 system as described in detail below.
Eggs were laid on grape juice plates with yeast paste at 25°C for 6 h. […] After a week of incubation at 25°C, pupal numbers were scored in each vial.

[5] abbreviates: normalised to maximum ACh response.
Setting [6] is: RNAi of Dα1 (pan-neuronal knockdown) vs control.
Setting [7] is: RNAi of Dα2 (pan-neuronal knockdown) vs control.

pEC50: −log10 of the molar value. Read-outs that look alike come from different tables or passages of the source.

Take `N#C/N=C1\SCCN1Cc1ccc(Cl)nc1` [Thiacloprid, thiacloprid]: the Imax was 0.047 in test [1] (efficacy); 0.047 ± 0.004 in test [1] (setting [5]); 0.047 in test [2] (efficacy); 0.047 ± 0.006 in test [2] (setting [5]); 0.107 in test [3] (efficacy); 0.107 ± 0.015 in test [3] (setting [5]). Also, the figures for the pEC50 in test [1], in test [2] (read-out: EC50) and in test [3] were 7.73, 8.07 and 8.00, respectively. The “toxicity in larvae, effect of RNAi” value in test [4] (setting [6]) and in test [4] (setting [7]) was “reduced toxicity” each time.

As for `O=[N+]([O-])NC1=NCCN1Cc1ccc(Cl)nc1` [Imidacloprid, imidacloprid], the Imax in test [1] (efficacy) was found to be 0.094; in test [1] (setting [5]) it was 0.094 ± 0.007; in test [2] (efficacy), 0.170; in test [2] (setting [5]) it was 0.170 ± 0.020; in test [3] (efficacy), 0.330; in test [3] (setting [5]) it was 0.330 ± 0.018. Also, the figures for the negative logarithm of the EC50 (pEC50) in test [1] and in test [3] were 7.08 and 7.52, respectively. In test [2], the EC50 was 0.0263 µM. In addition, the “toxicity in larvae, effect of RNAi” value in test [4] (setting [6]) and in test [4] (setting [7]) was “reduced toxicity” in each case.

With `CC(=O)OCC[N+](C)(C)C` [ACh, acetylcholine], the Imax in test [1] (efficacy), in test [2] (efficacy) and in test [3] (efficacy) was 1 in each case.

Consider `CN/C(=N\[N+](=O)[O-])NCc1cnc(Cl)s1` [Clothianidin, clothianidin], for which the Imax was determined as 0.817 in test [1] (efficacy); 0.817 ± 0.024 in test [1] (setting [5]); 0.627 in test [2] (efficacy); 0.627 ± 0.025 in test [2] (setting [5]); 0.684 in test [3] (efficacy); 0.684 ± 0.022 in test [3] (setting [5]). Besides, the negative-log EC50 (pEC50) in test [1] was 6.55; in test [3], 7.40. Besides, in test [2], the EC50 is 0.0631 µM. Further, the “toxicity in larvae, effect of RNAi” value in test [4] (setting [6]) and in test [4] (setting [7]) was “reduced toxicity” throughout.

For orientation: pEC50 means the EC50 on a negative log10 scale, so that one unit is a factor of ten.
